Patent US20100311656A1 (priority 2003, published 2010)

Legend:
[1] = cited from earlier work
[2] = system: SARS-CoV (Urbani); assay type: in vivo, mice
[3] = 0.2 mg/kg or 2 mg/kg s.c.; no toxicity controls included; cited from earlier work
[4] = subcutaneously injected; cited from earlier work
[5] = mouse, in vivo

Substance: Ac-SDAAVDTSSEITTKDLKEKKEVVEEAEN-OH [thymosin alpha-1]
- Dose found to be safe for humans [1]: ≤ 16 mg/kg body weight/day
- Effect on virus lung titers ([2]; mouse, in vivo): significantly reduced virus lung titers
- Reduction of virus lung titers ([2]; mouse, in vivo): about one
- Reduction of virus titers ([2]; mouse, in vivo): approximately 0.5 log10 unit
- Virus titer reductions (range over regimens) ([2]; mouse, in vivo): 0.5-1.0 log10 units
- Tolerability of the doses used (previously shown) [3]: well tolerated
- Plasma half-life [4]: about two
- Tolerability of treatments [5]: very well tolerated

Substance: Poly-ICLC
- Inhibition of lung virus titers ([2]; 50 μg/mouse i.n., positive control, P<0.01): ~3 log 10 units
- Virus Titer (Log10 CCID50/g) ([2]; lung, day 3 after infection, 50 μg/mouse i.n., -24 h, +12 h, mean ± SD, P < 0.01 vs buffer): 2.9 ± 0.1 Log10 CCID50/g
- Mean Body Weight Change [5]: 0.0 g
